Measurements: ChEMBL document CHEMBL6074713, “Chemical Synthesis and Antifibrotic Properties of (±)-Cochlearol T, (±)-Ganocochlearin A, and (±)-Cochlearol Y” (ACS Med Chem Lett, 2024)
Active and inactive are the calls of the source. No cut-off for these calls is given here.

Legend:
HK-2 [1] = assay: Anti-fibrotic activity in TGFbeta-1-treated HK-2 cells assessed as decrease in fibronectin level at 5 to 10 uM incubated for 24 to 48 hrs by Western blot analysis; format: functional, cell-based; conditions: Homo sapiens, dose 5-10 µM, time 24-48 hrs
HK-2 [2] = assay: Anti-fibrotic activity in TGFbeta-1-treated HK-2 cells assessed as fibronectin mRNA level at 10 uM incubated for 24 to 48 hrs by qPCR analysis (reference value: 11.31 +/- 2.49); format: functional, Homo sapiens; conditions: time 24-48 hrs
HK-2 [3] = assay: Anti-fibrotic activity in TGFbeta-1-treated HK-2 cells assessed as vimentin mRNA level at 10 uM incubated for 24 to 48 hrs by qPCR analysis (reference value: 3.73 +/- 0.47); format: functional, Homo sapiens; conditions: time 24-48 hrs
HK-2 [4] = assay: Anti-fibrotic activity in TGFbeta-1-treated HK-2 cells assessed as Col4A1 mRNA level at 10 uM incubated for 24 to 48 hrs by qPCR analysis (reference value: 2.54 +/- 0.24); format: functional, Homo sapiens; conditions: time 24-48 hrs
HK-2 [5] = assay: Anti-fibrotic activity in TGFbeta-1-treated HK-2 cells assessed as decrease in alpha-SMA level at 1 uM incubated for 24 to 48 hrs by Western blot analysis; format: functional, cell-based; conditions: Homo sapiens, time 24-48 hrs
HK-2 [6] = assay: Anti-fibrotic activity in HK-2 cell model of 10 ng/ml TGFbeta-1-induced fibrosis injury assessed as vimentin mRNA level at 10 uM incubated for 24 to 48 hrs by qPCR analysis (reference value: 1.41 +/- 0.1); format: functional, Homo sapiens; conditions: time 24-48 hrs
HK-2 [7] = assay: Anti-fibrotic activity in HK-2 cell model of 20 ng/ml TGFbeta-1-induced fibrosis injury assessed as vimentin mRNA level at 20 uM incubated for 24 to 48 hrs by qPCR analysis (reference value: 3.19 +/- 0.23); format: functional, Homo sapiens; conditions: time 24-48 hrs
HK-2 [8] = assay: Cytotoxicity against TGFbeta-1-treated HK-2 cells assessed as decrease in cell viability at 1 to 5 uM incubated for 48 hrs by Cell Titer-Glo assay; format: toxicity, cell-based; conditions: human, hk-2, 48 h, dose 1-5 µM
HK-2 [9] = assay: Anti-fibrotic activity in TGFbeta-1-treated HK-2 cells assessed as Col4A1 mRNA level at 10 uM incubated for 24 to 48 hrs by qPCR analysis (reference value: 2.35 +/- 0.38); format: functional, Homo sapiens; conditions: time 24-48 hrs
[10] = Cytotoxicity against TGFbeta-1-treated HK-2 cells assessed as cell viability at 10 uM incubated for 48 hrs by Cell Titer-Glo assay (Rvb ~ 80 %); format: toxicity, cell-based; conditions: human, read-out: Activity
HK-2 [11] = assay: Anti-fibrotic activity in TGFbeta-1-treated HK-2 cells assessed as decrease in vimentin level at 1 uM incubated for 24 to 48 hrs by Western blot analysis; format: functional, cell-based; conditions: Homo sapiens, time 24-48 hrs
HK-2 [12] = assay: Anti-fibrotic activity in HK-2 cell model of 20 ng/ml TGFbeta-1-induced fibrosis injury assessed as Col4A1 mRNA level at 20 uM incubated for 24 to 48 hrs by qPCR analysis (reference value: 8.96 +/- 0.96); format: functional, Homo sapiens; conditions: time 24-48 hrs
HK-2 [13] = assay: Anti-fibrotic activity in HK-2 cell model of 20 ng/ml TGFbeta-1-induced fibrosis injury assessed as Col4A1 mRNA level at 10 uM incubated for 24 to 48 hrs by qPCR analysis (reference value: 8.96 +/- 0.96); format: functional, Homo sapiens; conditions: time 24-48 hrs
HK-2 [14] = assay: Anti-fibrotic activity in HK-2 cell model of 10 ng/ml TGFbeta-1-induced fibrosis injury assessed as Col4A1 mRNA level at 20 uM incubated for 24 to 48 hrs by qPCR analysis (reference value: 2.44 +/- 0.21); format: functional, Homo sapiens; conditions: time 24-48 hrs
HK-2 [15] = assay: Anti-fibrotic activity in TGFbeta-1-treated HK-2 cells assessed as decrease in fibronectin level at 1 uM incubated for 24 to 48 hrs by Western blot analysis; format: functional, cell-based; conditions: Homo sapiens, time 24-48 hrs
HK-2 [16] = assay: Anti-fibrotic activity in HK-2 cell model of 10 ng/ml TGFbeta-1-induced fibrosis injury assessed as Col4A1 mRNA level at 10 uM incubated for 24 to 48 hrs by qPCR analysis (reference value: 2.44 +/- 0.21); format: functional, Homo sapiens; conditions: time 24-48 hrs
HK-2 [17] = assay: Anti-fibrotic activity in TGFbeta-1-treated HK-2 cells assessed as vimentin mRNA level at 10 uM incubated for 24 to 48 hrs by qPCR analysis (reference value: 1.88 +/- 0.48); format: functional, Homo sapiens; conditions: time 24-48 hrs
HK-2 [18] = assay: Anti-fibrotic activity in HK-2 cell model of 10 ng/ml TGFbeta-1-induced fibrosis injury assessed as vimentin mRNA level at 20 uM incubated for 24 to 48 hrs by qPCR analysis (reference value: 1.41 +/- 0.1); format: functional, Homo sapiens; conditions: time 24-48 hrs
HK-2 [19] = assay: Anti-fibrotic activity in TGFbeta-1-treated HK-2 cells assessed as decrease in Col4A1 level at 1 uM incubated for 24 to 48 hrs by Western blot analysis; format: functional, cell-based; conditions: Homo sapiens, time 24-48 hrs
HK-2 [20] = assay: Anti-fibrotic activity in TGFbeta-1-treated HK-2 cells assessed as fibronectin mRNA level at 10 uM incubated for 24 to 48 hrs by qPCR analysis (reference value: 6.88); format: functional, Homo sapiens; conditions: time 24-48 hrs
HK-2 [21] = assay: Anti-fibrotic activity in HK-2 cell model of 20 ng/ml TGFbeta-1-induced fibrosis injury assessed as vimentin mRNA level at 10 uM incubated for 24 to 48 hrs by qPCR analysis (reference value: 3.19 +/- 0.23); format: functional, Homo sapiens; conditions: time 24-48 hrs
HK-2 [22] = assay: Anti-fibrotic activity in TGFbeta-1-treated HK-2 cells assessed as decrease in vimentin mRNA level at 10 uM incubated for 24 to 48 hrs by qPCR analysis relative to control; format: functional, Homo sapiens; design: scale not given: the % may be the effect or the level left; conditions: time 24-48 hrs
HK-2 [23] = assay: Anti-fibrotic activity in TGFbeta-1-treated HK-2 cells assessed as decrease in Col4A1 mRNA level at 10 uM incubated for 24 to 48 hrs by qPCR analysis relative to control; format: functional, Homo sapiens; design: scale not given: the % may be the effect or the level left; conditions: time 24-48 hrs
HK-2 [24] = assay: Anti-fibrotic activity in TGFbeta-1-treated HK-2 cells assessed as Col4A1 mRNA level at 10 uM incubated for 24 to 48 hrs by qPCR analysis (reference value: 2.81 +/- 0.22); format: functional, Homo sapiens; conditions: time 24-48 hrs
HK-2 [25] = assay: Anti-fibrotic activity in TGFbeta-1-treated HK-2 cells assessed as decrease in alpha-SMA level at 5 to 10 uM incubated for 24 to 48 hrs by Western blot analysis; format: functional, cell-based; conditions: Homo sapiens, dose 5-10 µM, time 24-48 hrs
HK-2 [26] = assay: Anti-fibrotic activity in TGFbeta-1-treated HK-2 cells assessed as fibronectin mRNA level at 10 uM incubated for 24 to 48 hrs by qPCR analysis (reference value: 2.16 +/- 0.31); format: functional, Homo sapiens; conditions: time 24-48 hrs
HK-2 [27] = assay: Anti-fibrotic activity in TGFbeta-1-treated HK-2 cells assessed as vimentin mRNA level at 10 uM incubated for 24 to 48 hrs by qPCR analysis (reference value: 2.2 +/- 0.28); format: functional, Homo sapiens; conditions: time 24-48 hrs
HK-2 [28] = assay: Anti-fibrotic activity in TGFbeta-1-treated HK-2 cells assessed as decrease in fibronectin mRNA level at 10 uM incubated for 24 to 48 hrs by qPCR analysis relative to control; format: functional, Homo sapiens; design: scale not given: the % may be the effect or the level left; conditions: time 24-48 hrs
HK-2 [29] = assay: Anti-fibrotic activity in TGFbeta-1-treated HK-2 cells assessed as decrease in vimentin level at 1 to 10 uM incubated for 24 to 48 hrs by Western blot analysis; format: functional, cell-based; conditions: Homo sapiens, dose 1-10 µM, time 24-48 hrs

CC(C)=CCC[C@]1(C)Oc2ccc(O)cc2C2=CC(=O)CC[C@H]21 (racemic)
Activity (HK-2 [1]): Active | Activity (HK-2 [2]): 0.39 | Activity (HK-2 [3]): 0.93 | Activity (HK-2 [4]): 0.6 | Activity (HK-2 [5]): Active

CC(C)=CCCC1(C)Oc2ccc(O)cc2-c2cc(O)ccc21 (racemic)
Activity (HK-2 [6]): 0.54 | Activity (HK-2 [7]): 0.5 | Activity (HK-2 [8]): Non-toxic | Activity (HK-2 [9]): 0.66 | viability at 48 h, 10 µM [10]: 70% | Activity (HK-2 [11]): Active | Activity (HK-2 [12]): 1.21 | Activity (HK-2 [13]): 4.08 | Activity (HK-2 [14]): 0.11 | Activity (HK-2 [15]): Active | Activity (HK-2 [16]): 0.74 | Activity (HK-2 [17]): 0.65 | Activity (HK-2 [18]): 0.24 | Activity (HK-2 [19]): Active | Activity (HK-2 [20]): 1 | Activity (HK-2 [21]): 1.44

CC(C)=CCC[C@]1(C)Oc2ccc(O)cc2C2=CC(=O)CC[C@@H]21 (racemic)
Activity (HK-2 [22]): <=50% | Activity (HK-2 [23]): <=50% | Activity (HK-2 [24]): 1.1 | Activity (HK-2 [25]): Active | Activity (HK-2 [26]): 0.6 | Activity (HK-2 [27]): 1.22 | Activity (HK-2 [28]): <=50% | Activity (HK-2 [29]): Active
